Measurements: PMC12365235, “Molecular mechanisms of thiazide-like diuretics-mediated inhibition of the human Na-Cl cotransporter” (Nature Communications, 2025)
Entries after “also recorded” stand apart in the source; their conditions may differ.

Experiments:
[1] = tested on: hNCC(V229M); assay: 125I- uptake assay, hNCC(V229M) variant; assay type: cell-based, human; settings: V229M polymorphism
Description: (§1) HEK293S cell lines, cultured in 293 Freestyle medium (Life Technologies; plus 10% fetal bovine serum), stably expressing hNCC and its variants were generated following published protocols. Cells were transfected using Lipofectamine 3000 (Invitrogen) with a pSBbi-RP-based plasmid containing hNCC or its variants and the SB100X vector. Puromycin (2 μg/mL; Gemini Bio-Products) was used for selection of stable cell lines.
To prepare for the uptake experiment, cells were plated at 0.5 × 10^6 cells/well in 24-well plates one day in advance. To activate NCC, cells were treated with a chloride-free hypotonic solution composed of 67.5 mM sodium-, 2.5 mM potassium-, 0.25 mM magnesium-, and 0.25 mM calcium-gluconate, as well as 7.5 mM HEPES pH 7.4 (buffered using Tris) at 37 °C for 10 min[72]. After the activation step, the experiments were carried out at room temperature. Ten minutes before the start of ^125I^− uptake, 70 μM Bumetanide (Thermo Scientific Chemicals) and 100 μM 4,4′-diisothiocyanatostilbene-2,2′-disulfonic acid (DIDS; Sigma) were added to suppress background iodide uptake activity. Indicated thiazide diuretics were also added to the indicated concentrations 10 min before the start of ^125I^− uptake. […] Cells lysed using 1% sodium dodecyl sulfate (SDS) were analyzed by scintillation counting. […]

[2] = target: T1, hNCC(H234N) (Homo sapiens, UniProt P55017, H234N); assay: 125I- uptake assay, hNCC(H234N) variant; assay type: cell-based; settings: 100 μM polythiazide
T1 construct: expressed in transfected cells
T1 sequence (P55017 1-1021 H234N): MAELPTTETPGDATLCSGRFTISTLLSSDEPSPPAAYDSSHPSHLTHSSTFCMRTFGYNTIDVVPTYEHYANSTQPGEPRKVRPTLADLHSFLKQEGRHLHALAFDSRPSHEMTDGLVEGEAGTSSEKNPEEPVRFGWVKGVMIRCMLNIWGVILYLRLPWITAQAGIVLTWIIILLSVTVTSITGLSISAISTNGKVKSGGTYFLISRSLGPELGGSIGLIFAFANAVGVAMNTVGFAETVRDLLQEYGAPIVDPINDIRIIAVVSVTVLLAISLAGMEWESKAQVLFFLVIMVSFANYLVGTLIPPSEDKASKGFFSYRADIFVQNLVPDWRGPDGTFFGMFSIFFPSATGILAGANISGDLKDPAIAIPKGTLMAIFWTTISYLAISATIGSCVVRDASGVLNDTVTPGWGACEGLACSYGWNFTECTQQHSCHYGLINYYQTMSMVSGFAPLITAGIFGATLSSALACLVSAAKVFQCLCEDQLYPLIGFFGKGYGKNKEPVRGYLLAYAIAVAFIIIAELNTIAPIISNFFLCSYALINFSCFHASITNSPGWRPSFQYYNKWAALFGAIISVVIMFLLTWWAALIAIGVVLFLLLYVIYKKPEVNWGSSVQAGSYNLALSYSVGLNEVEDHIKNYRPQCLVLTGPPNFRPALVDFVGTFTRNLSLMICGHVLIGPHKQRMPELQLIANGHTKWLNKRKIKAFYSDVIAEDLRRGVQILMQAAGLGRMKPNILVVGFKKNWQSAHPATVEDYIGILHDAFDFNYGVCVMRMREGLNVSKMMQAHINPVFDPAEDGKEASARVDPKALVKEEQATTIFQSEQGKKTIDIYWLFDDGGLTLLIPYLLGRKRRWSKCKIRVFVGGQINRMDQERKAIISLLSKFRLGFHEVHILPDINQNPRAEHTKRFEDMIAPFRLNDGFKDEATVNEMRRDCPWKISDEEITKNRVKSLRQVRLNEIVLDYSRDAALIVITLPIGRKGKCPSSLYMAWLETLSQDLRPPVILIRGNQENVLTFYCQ
Description: as §1
To prepare for the uptake experiment, cells were plated at 0.5 × 10^6 cells/well in 24-well plates one day in advance. To activate NCC, cells were treated with a chloride-free hypotonic solution composed of 67.5 mM sodium-, 2.5 mM potassium-, 0.25 mM magnesium-, and 0.25 mM calcium-gluconate, as well as 7.5 mM HEPES pH 7.4 (buffered using Tris) at 37 °C for 10 min[72]. After the activation step, the experiments were carried out at room temperature. Ten minutes before the start of ^125I^− uptake, 70 μM Bumetanide (Thermo Scientific Chemicals) and 100 μM 4,4′-diisothiocyanatostilbene-2,2′-disulfonic acid (DIDS; Sigma) were added to suppress background iodide uptake activity. Indicated thiazide diuretics were also added to the indicated concentrations 10 min before the start of ^125I^− uptake. […] Cells lysed using 1% sodium dodecyl sulfate (SDS) were analyzed by scintillation counting.

How did the “fold reduction of sensitivity relative to hNCC(WT)” value [1] turn out when `CN1C(CSCC(F)(F)F)Nc2cc(Cl)c(S(N)(=O)=O)cc2S1(=O)=O` (centres unmarked) [polythiazide] was run?
The value was ~ 5 fold.

What about the “inhibition of transport activity” value [2] of the same compound?
The value was “fully inhibited; also recorded: completely inhibited”.
